In patent publication US11713338B2, “Cyclic peptides multimers targeting α-4-β-7 integrin” (priority 2016, dated 2023):

Target: T1, recombinant integrin α4β7 (Homo sapiens, UniProt P13612+P26010, DEL724-798)
T1 construct: purchased R&D Systems 5397-A3-050
T1 sequence (P13612 34-970 limits assumed): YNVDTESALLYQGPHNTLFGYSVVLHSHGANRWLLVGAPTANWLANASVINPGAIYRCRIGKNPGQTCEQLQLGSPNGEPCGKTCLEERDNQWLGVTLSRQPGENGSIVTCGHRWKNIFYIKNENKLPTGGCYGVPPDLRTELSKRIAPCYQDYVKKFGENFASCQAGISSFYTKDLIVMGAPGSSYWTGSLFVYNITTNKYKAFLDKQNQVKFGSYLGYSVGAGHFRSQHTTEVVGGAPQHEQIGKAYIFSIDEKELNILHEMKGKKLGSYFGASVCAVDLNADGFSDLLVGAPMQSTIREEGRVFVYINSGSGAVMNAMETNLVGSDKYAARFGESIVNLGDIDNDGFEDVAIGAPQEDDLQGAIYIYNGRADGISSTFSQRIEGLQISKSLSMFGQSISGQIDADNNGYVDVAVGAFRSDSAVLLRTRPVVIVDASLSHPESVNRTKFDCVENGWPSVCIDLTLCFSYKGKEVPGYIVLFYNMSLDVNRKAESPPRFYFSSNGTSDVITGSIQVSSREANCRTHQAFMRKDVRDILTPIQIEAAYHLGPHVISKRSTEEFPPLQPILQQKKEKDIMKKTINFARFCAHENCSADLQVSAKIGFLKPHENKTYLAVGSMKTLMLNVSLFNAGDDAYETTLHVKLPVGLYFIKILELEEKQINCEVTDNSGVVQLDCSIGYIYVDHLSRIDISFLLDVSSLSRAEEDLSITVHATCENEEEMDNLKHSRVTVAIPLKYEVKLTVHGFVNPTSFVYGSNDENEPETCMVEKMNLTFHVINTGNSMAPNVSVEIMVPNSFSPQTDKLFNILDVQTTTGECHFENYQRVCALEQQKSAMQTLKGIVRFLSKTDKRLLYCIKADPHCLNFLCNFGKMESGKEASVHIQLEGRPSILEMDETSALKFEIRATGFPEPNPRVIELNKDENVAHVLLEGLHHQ
T1 sequence (P26010 20-723 limits assumed): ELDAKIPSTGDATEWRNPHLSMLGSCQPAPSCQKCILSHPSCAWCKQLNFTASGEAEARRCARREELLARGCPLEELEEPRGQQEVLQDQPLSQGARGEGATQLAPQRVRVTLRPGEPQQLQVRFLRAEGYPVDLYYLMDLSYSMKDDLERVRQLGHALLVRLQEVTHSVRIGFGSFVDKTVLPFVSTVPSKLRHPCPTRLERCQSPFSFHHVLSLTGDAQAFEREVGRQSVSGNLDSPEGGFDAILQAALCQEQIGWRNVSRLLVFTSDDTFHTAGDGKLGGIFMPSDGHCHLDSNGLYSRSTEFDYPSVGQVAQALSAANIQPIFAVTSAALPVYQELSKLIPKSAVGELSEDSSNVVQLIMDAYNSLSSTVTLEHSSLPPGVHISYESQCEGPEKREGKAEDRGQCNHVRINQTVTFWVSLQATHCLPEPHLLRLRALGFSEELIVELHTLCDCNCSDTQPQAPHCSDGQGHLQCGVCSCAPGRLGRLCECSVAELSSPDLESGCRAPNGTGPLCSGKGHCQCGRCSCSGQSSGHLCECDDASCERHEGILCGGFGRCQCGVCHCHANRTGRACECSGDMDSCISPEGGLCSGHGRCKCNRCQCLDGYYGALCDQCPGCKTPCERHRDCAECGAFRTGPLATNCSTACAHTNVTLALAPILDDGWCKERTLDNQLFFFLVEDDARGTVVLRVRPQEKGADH
Assay: Integrin α4β7—MAdCAM-1 ELISA competition assay
Format: binding
Settings: for IC50: read-out: ELISA a4b7 Assay IC50; for ELISA Assay Ratio b1/b7: ratio of a4b1 to a4b7 ELISA IC50

## CC(C)C[C@@H]1NC(=O)[C@H](Cc2ccc(-c3ccccc3)cc2)NC(=O)[C@@H]2CCCN2[C@H](C(=O)NC(C)(C)C)[C@H](C)NC(=O)[C@H]([C@@H](C)OCc2ccccc2)NC(=O)[C@H](CC(=O)O)NC1=O [Compound 18]
  IC50: 120 nM

## CC(C)C[C@@H]1NC(=O)C[C@H](CCCCN)NC(=O)[C@H](Cc2cccc(I)c2)NC(=O)[C@@H]2CCCN2[C@H](C(=O)NC(C)(C)C)[C@H](C)NC(=O)[C@H]([C@@H](C)O)NC(=O)[C@H](CC(=O)O)NC1=O [Compound 255]
  IC50: 43 nM

## CC(C)C[C@@H]1NC(=O)CNC(=O)[C@H](Cc2ccc(CN)cc2)NC(=O)[C@@H]2CCCN2[C@H](C(=O)NC(C)(C)C)[C@H](C)NC(=O)[C@H]([C@@H](C)O)NC(=O)[C@H](CC(=O)O)NC1=O [Compound 165]
  ELISA Assay Ratio b1/b7: 22.8
  IC50: 128 nM

## CC(C)C[C@@H]1NC(=O)C[C@H](CCCCN)NC(=O)[C@H](Cc2ccccc2-c2cccnc2)NC(=O)[C@@H]2CCCN2[C@H](C(=O)NC(C)(C)C)[C@H](C)NC(=O)[C@H]([C@@H](C)O)NC(=O)[C@H](CC(=O)O)NC1=O [Compound 292]
  IC50: 30 nM

## CC(C)C[C@@H]1NC(=O)c2ccc(N3CCOCC3)c(c2)CNC(=O)[C@@H]2CCCN2[C@H](C(=O)NC(C)(C)C)[C@H](C)NC(=O)[C@H]([C@@H](C)O)NC(=O)[C@H](CC(=O)O)NC1=O [Compound 379]
  ELISA Assay Ratio b1/b7: 4.9
  IC50: 33 nM

## Cc1cccc(C)c1-c1ccccc1C[C@@H]1NC(=O)[C@@H]2CCCN2[C@H](C(=O)NC(C)(C)C)[C@H](C)NC(=O)[C@H]([C@@H](C)O)NC(=O)[C@H](CC(=O)O)NC(=O)[C@H](CC(C)C)NC(=O)C[C@H](CCCCN)NC1=O [Compound 272]
  ELISA Assay Ratio b1/b7: 58.1
  IC50: 41 nM

## CC(C)C[C@@H]1NC(=O)C[C@H](CCCCN)NC(=O)[C@H](Cc2ccccc2-c2cc(C(F)(F)F)ccc2C(F)(F)F)NC(=O)[C@@H]2CCCN2[C@H](C(=O)NC(C)(C)C)[C@H](C)NC(=O)[C@H]([C@@H](C)O)NC(=O)[C@H](CC(=O)O)NC1=O [Compound 286]
  IC50: 64 nM

## CC[C@H](C)[C@@H]1NC(=O)[C@H](CC(=O)O)NC(=O)[C@H](CC(C)C)NC(=O)[C@H](Cc2c[nH]c3ccccc23)NC(=O)[C@@H]2CCCN2[C@H](C(=O)NC(C)(C)C)[C@H](C)NC1=O [Compound 8]
  IC50: 103 nM

## CC(C)C[C@@H]1NC(=O)[C@H]2C[C@H](O)CN2C(=O)[C@H](Cc2ccc(O)cc2)NC(=O)[C@@H]2CCCN2[C@H](C(=O)NC(C)(C)C)[C@H](C)NC(=O)[C@H]([C@@H](C)O)NC(=O)[C@H](CC(=O)O)NC1=O [Compound 140]
  ELISA Assay Ratio b1/b7: 9.6
  IC50: 53 nM

## CC(C)C[C@@H]1NC(=O)C[C@H](CCCCN)NC(=O)[C@H](Cc2ccccc2)N(C)C(=O)[C@@H]2CCCN2[C@H](C(=O)NC(C)(C)C)[C@H](C)NC(=O)[C@H]([C@@H](C)O)NC(=O)[C@H](CC(=O)O)NC1=O [Compound 264]
  IC50: 117 nM

## COc1ccc(-c2ccccc2C[C@@H]2NC(=O)[C@@H]3CCCN3[C@H](C(=O)NC(C)(C)C)[C@H](C)NC(=O)[C@H]([C@@H](C)O)NC(=O)[C@H](CC(=O)O)NC(=O)[C@H](CC(C)C)NC(=O)[C@H]3CCCCN3C2=O)cc1 [Compound 137]
  ELISA Assay Ratio b1/b7: 7.8
  IC50: 33 nM

## CC(C)C[C@@H]1NC(=O)C[C@H](CCCCN)NC(=O)[C@H](Cc2ccc3ccccc3c2)NC(=O)[C@@H]2CCCN2[C@H](C(=O)NC(C)(C)C)[C@H](C)NC(=O)[C@H]([C@@H](C)O)NC(=O)[C@H](CC(=O)O)NC1=O [Compound 203]
  IC50: 55 nM

## CC(C)C[C@@H]1NC(=O)C[C@H](CCCCN)NC(=O)C2(CCc3ccccc3C2)NC(=O)[C@@H]2CCCN2[C@H](C(=O)NC(C)(C)C)[C@H](C)NC(=O)[C@H]([C@@H](C)O)NC(=O)[C@H](CC(=O)O)NC1=O (some centres unmarked) [Compound 282]
  IC50: 119 nM

## CC(C)C[C@@H]1NC(=O)[C@H](Cc2ccc(O)cc2)NC(=O)[C@@H]2CCCN2C(C(=O)NC(C)(C)C)C(CSc2ccccc2)NC(=O)[C@H]([C@@H](C)O)NC(=O)[C@H](CC(=O)O)NC1=O (some centres unmarked) [Compound 3]
  ELISA Assay Ratio b1/b7: 2.474

## CC(C)C[C@@H]1NC(=O)C[C@H](CCCCN)NC(=O)[C@H](Cc2ccc(-c3ccccc3OC(F)(F)F)cc2)NC(=O)[C@@H]2CCCN2[C@H](C(=O)NC(C)(C)C)[C@H](C)NC(=O)[C@H]([C@@H](C)O)NC(=O)[C@H](CC(=O)O)NC1=O [Compound 262]
  IC50: 80 nM

## CCC[C@@H]1NC(=O)[C@@H]2CCCN2[C@H](C(=O)NC(C)(C)C)[C@H](C)NC(=O)[C@H]([C@@H](C)O)NC(=O)[C@H](CC(=O)O)NC(=O)[C@H](CC(C)C)NC1=O [Compound 71]
  ELISA Assay Ratio b1/b7: 4.4
  IC50: 184 nM

## CC(C)C[C@@H]1NC(=O)[C@H]2CCCN2C(=O)[C@H](Cc2cc(F)c(F)c(F)c2)NC(=O)[C@@H]2CCCN2[C@H](C(=O)NC(C)(C)C)[C@H](C)NC(=O)[C@H]([C@@H](C)O)NC(=O)[C@H](CC(=O)O)NC1=O [Compound 128]
  ELISA Assay Ratio b1/b7: 11.4
  IC50: 26 nM

## CC(C)C[C@@H]1NC(=O)c2ccc(N(C)C)c(c2)CNC(=O)[C@@H]2CCCN2[C@H](C(=O)NC(C)(C)C)[C@H](C)NC(=O)[C@H]([C@@H](C)O)NC(=O)[C@H](CC(=O)O)NC1=O [Compound 380]
  IC50: 41 nM

## COc1cccc(Cl)c1-c1cccc(C[C@@H]2NC(=O)[C@@H]3CCCN3[C@H](C(=O)NC(C)(C)C)[C@H](C)NC(=O)[C@H]([C@@H](C)O)NC(=O)[C@H](CC(=O)O)NC(=O)[C@H](CC(C)C)NC(=O)C[C@H](CCCCN)NC2=O)c1 [Compound 298]
  IC50: 76 nM

## CC(C)C[C@@H]1NC(=O)[C@H]2CCCCN2C(=O)[C@H](Cc2ccccc2-c2ccccc2)NC(=O)[C@@H]2CCCN2[C@H](C(=O)NC(C)(C)C)[C@H](C)NC(=O)[C@H]([C@@H](C)O)NC(=O)[C@H](CC(=O)O)NC1=O [Compound 134]
  ELISA Assay Ratio b1/b7: 7.6
  IC50: 23 nM

## CC(C)C[C@@H]1NC(=O)C[C@H](CCCCN)NC(=O)[C@H](Cc2ccccc2-c2ncccc2Br)NC(=O)[C@@H]2CCCN2[C@H](C(=O)NC(C)(C)C)[C@H](C)NC(=O)[C@H]([C@@H](C)O)NC(=O)[C@H](CC(=O)O)NC1=O [Compound 294]
  IC50: 45 nM

## CC(C)C[C@@H]1NC(=O)C[C@H](CCCCN)NC(=O)[C@H](Cc2ccccc2-c2cccnc2Br)NC(=O)[C@@H]2CCCN2[C@H](C(=O)NC(C)(C)C)[C@H](C)NC(=O)[C@H]([C@@H](C)O)NC(=O)[C@H](CC(=O)O)NC1=O [Compound 297]
  IC50: 37 nM

## C=CCOc1ccc(C[C@@H]2NC(=O)[C@@H]3CCCN3[C@H](C(=O)NC(C)(C)C)[C@H](C)NC(=O)[C@H]([C@@H](C)O)NC(=O)[C@H](CC(=O)O)NC(=O)[C@H](CC(C)C)NC(=O)[C@@H](CO)NC2=O)cc1 [Compound 167]
  ELISA Assay Ratio b1/b7: 13.6
  IC50: 147 nM
